#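 Cells were grown in 96-well plates and exposed to each compound for 48 hours at five concentrations; endpoints were interpolated linearly between bracketing concentrations, or set to the highest concentration if not reached. Abbreviation: GI50, concentration required for 50% inhibition of growth. TGI: total growth inhibition.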
# Experiments:
# Experiment in all cases: NCI anticancer screen, dose series, 48 h
# SF-268 CNS = tested on: SF-268 CNS
# SNB-75 CNS = tested on: SNB-75 CNS
# HOP-92 NSCLC = tested on: HOP-92 NSCLC
# HT29 colon = tested on: HT29 colon
# U251 CNS = tested on: U251 CNS
# SNB-19 CNS = tested on: SNB-19 CNS
# A498 renal = tested on: A498 renal
# OVCAR-5 ovarian = tested on: OVCAR-5 ovarian
# HS 578T breast = tested on: HS 578T breast
# HCC-2998 colon = tested on: HCC-2998 colon
SMILES,GI50 (SF-268 CNS) [µM],TGI (SF-268 CNS) [µM],GI50 (SNB-75 CNS) [µM],TGI (SNB-75 CNS) [µM],GI50 (HOP-92 NSCLC) [µM],TGI (HOP-92 NSCLC) [µM],GI50 (HT29 colon) [µM],TGI (HT29 colon) [µM],GI50 (U251 CNS) [µM],TGI (U251 CNS) [µM],GI50 (SNB-19 CNS) [µM],TGI (SNB-19 CNS) [µM],GI50 (A498 renal) [µM],TGI (A498 renal) [µM],GI50 (OVCAR-5 ovarian) [µM],TGI (OVCAR-5 ovarian) [µM],GI50 (HS 578T breast) [µM],TGI (HS 578T breast) [µM],GI50 (HCC-2998 colon) [µM],TGI (HCC-2998 colon) [µM]
CC(=O)O.CC(=O)O.CC(=O)O.CC(=O)O.[Rh].[Rh],33.2,> 100,30.5,> 100,25.5,63.1,21.2,53.6,25.2,75.3,60,> 100,18.8,37.2,20.5,52.4,60.6,> 100,24,56.7
Cn1nnc2c(C(N)=O)ncn2c1=O,,> 100,,> 100,,> 100,,> 100,,> 100,,> 100,> 100,> 100,,> 100,,> 100,,> 100
Oc1c(Cl)cc(Cl)c2cccnc12,3.39,> 100,6.27,> 100,2.8,26.3,4.99,18,2.67,55,3.73,24.6,2.92,12.1,8.71,43.3,6.88,> 100,10.1,26
OCc1ccc(N2CCCC2)cc1Cl,> 61.3,> 100,24.5,> 100,2.22,24.2,7.9,76.4,5.52,> 60.8,> 100,> 100,0.147,0.289,0.148,0.498,> 50,> 100,15.7,69.9
Nc1ncccc1-c1nc2ccc(-c3ccccc3)nc2n1-c1ccc(C2(N)CCC2)cc1,2.05,12.4,0.0859,1.7,0.0644,1.2,0.435,3.37,0.746,2.31,1.5,3.67,0.0791,0.654,1.53,8.23,0.253,2.31,1.19,2.77
CCN1C(=O)N(CC)C2C1NN=c1s/c(=C\c3ccc[nH]3)c(=O)n12 (stereo not given),0.7,> 100,0.14,0.598,13.4,> 100,0.342,,0.446,> 100,0.626,> 100,0.102,0.622,1.59,> 100,0.335,> 100,1.82,> 100
